From ChEMBL document CHEMBL1201862, “PubChem BioAssay data set” (2004)
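Compound exposure: 48 hours, 5 concentrations, 96-well plates. Abbreviation: GI50, concentration required for 50% inhibition of growth.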 The source made the active and inactive calls. Rule as the data show it: active = GI50 up to about 1.1 µM and inactive = higher.

Columns and labels:
Experiment in all cases: growth of human tumour cells (NCI), 48 h
ACHN = tested on: ACHN
BT-549 = tested on: BT-549
CAKI-1 = tested on: CAKI-1
HCC 2998 = tested on: HCC 2998
HCT-15 = tested on: HCT-15
HL-60 = tested on: HL-60
MCF7 = tested on: MCF7
MDA-N = tested on: MDA-N
MOLT-4 = tested on: MOLT-4
NCI-H23 = tested on: NCI-H23
NCI-H460 = tested on: NCI-H460
PC-3 = tested on: PC-3
RPMI-8226 = tested on: RPMI-8226
RXF 393 = tested on: RXF 393
SF-268 = tested on: SF-268
SK-MEL-5 = tested on: SK-MEL-5
SR = tested on: SR
UACC-62 = tested on: UACC-62
UO-31 = tested on: UO-31
HT-29 = tested on: HT-29

| Compound | GI50 (ACHN) | GI50 (BT-549) | GI50 (CAKI-1) | GI50 (HCC 2998) | GI50 (HCT-15) | GI50 (HL-60) | GI50 (MCF7) | GI50 (MDA-N) | GI50 (MOLT-4) | GI50 (NCI-H23) | GI50 (NCI-H460) | GI50 (PC-3) | GI50 (RPMI-8226) | GI50 (RXF 393) | GI50 (SF-268) | GI50 (SK-MEL-5) | GI50 (SR) | GI50 (UACC-62) | GI50 (UO-31) | GI50 (HT-29) |
| --- | --- | --- | --- | --- | --- | --- | --- | --- | --- | --- | --- | --- | --- | --- | --- | --- | --- | --- | --- | --- |
| O=C(CCC(=O)c1ccsc1)c1ccsc1 | > 100 µM (inactive) | > 100 µM (inactive) | > 100 µM (inactive) | > 100 µM (inactive) | > 100 µM | > 100 µM (inactive) | 74.8 µM (inactive) | > 100 µM (inactive) | > 100 µM (inactive) | > 100 µM (inactive) | > 100 µM (inactive) | > 100 µM (inactive) | > 100 µM (inactive) | > 100 µM (inactive) | > 100 µM (inactive) | > 100 µM (inactive) | > 100 µM (inactive) | > 100 µM (inactive) | > 100 µM (inactive) |  |
| N#Cc1[nH]c(=O)n(-c2ccc(Cl)cc2)c1N | > 10 µM (inactive) | > 10 µM (inactive) | 0.00637 µM (active) | > 10 µM (inactive) | > 10 µM | > 10 µM (inactive) | > 10 µM (inactive) | > 10 µM (inactive) | > 10 µM (inactive) | > 10 µM (inactive) | > 10 µM (inactive) | > 10 µM (inactive) | > 10 µM (inactive) | > 10 µM (inactive) | > 10 µM (inactive) | > 10 µM (inactive) | > 10 µM (inactive) | > 10 µM (inactive) |  | > 10 µM (inactive) |
| CC[N+](C)(CC)CCNC(=O)C(O)(c1ccccc1)c1ccccc1 | > 100 µM (inactive) | > 100 µM (inactive) | > 100 µM (inactive) | > 100 µM (inactive) | > 100 µM | > 100 µM (inactive) | > 100 µM (inactive) | > 100 µM (inactive) | > 100 µM (inactive) | > 100 µM (inactive) | > 100 µM (inactive) | > 100 µM (inactive) | > 100 µM (inactive) | > 100 µM (inactive) | > 100 µM (inactive) | > 100 µM (inactive) | > 100 µM (inactive) | > 100 µM (inactive) | > 100 µM (inactive) | > 100 µM (inactive) |
| c1ccc(-c2cn3c(nc4ccccc43)c(-c3ccccc3)n2)cc1 | > 100 µM (inactive) | 29.4 µM (inactive) | > 48.9 µM (inactive) | > 100 µM (inactive) | > 100 µM | > 100 µM (inactive) | 69.7 µM (inactive) | > 31.6 µM (inactive) | > 100 µM (inactive) | 55.2 µM (inactive) | 58.1 µM (inactive) | > 57.7 µM (inactive) | > 100 µM (inactive) | > 38 µM (inactive) | > 50.6 µM (inactive) | 84.3 µM (inactive) | > 100 µM (inactive) | 12.4 µM (inactive) | 37.7 µM (inactive) | 71 µM (inactive) |
| COc1cc(/C=C(\C#N)c2ccccn2)cc(Br)c1O | 97.7 µM (inactive) | 34.1 µM (inactive) | 48.5 µM (inactive) | 36.8 µM (inactive) | 21.9 µM | 24 µM (inactive) | 24.4 µM (inactive) | > 100 µM (inactive) | 35 µM (inactive) | 31 µM (inactive) | 36.3 µM (inactive) | 68.1 µM (inactive) | 40.9 µM (inactive) | 46.2 µM (inactive) | 51.4 µM (inactive) | 40.1 µM (inactive) | 22.7 µM (inactive) | 55.7 µM (inactive) | 58.5 µM (inactive) | 40.1 µM (inactive) |
| CCOC(=O)NC(Nc1cccc(C(F)(F)F)c1)(C(F)(F)F)C(F)(F)F | > 100 µM (inactive) | > 100 µM (inactive) | > 100 µM (inactive) | > 100 µM (inactive) | > 100 µM | > 100 µM (inactive) | > 100 µM (inactive) | > 100 µM (inactive) | > 100 µM (inactive) | > 100 µM (inactive) | > 100 µM (inactive) | > 100 µM (inactive) | > 100 µM (inactive) | > 100 µM (inactive) | > 100 µM (inactive) | > 100 µM (inactive) | > 100 µM (inactive) | > 100 µM (inactive) | 93.8 µM (inactive) | > 100 µM (inactive) |
| N#Cc1c(-c2ccc(Cl)cc2)c(C#N)c(=O)n(NS(=O)(=O)c2ccccc2)c1S | 24.9 µM (inactive) | 25.9 µM (inactive) | 26.2 µM (inactive) | > 10 µM (inactive) | 21.9 µM | 16.6 µM (inactive) | 32.6 µM (inactive) | 25.9 µM (inactive) | 21.6 µM (inactive) | 39.3 µM (inactive) | 18.8 µM (inactive) | 19.1 µM (inactive) | 23.9 µM (inactive) | 35.8 µM (inactive) |  | 14.2 µM (inactive) | 17 µM (inactive) | 19.1 µM (inactive) | 16.2 µM (inactive) |  |
